Reference: patent US4172148A, “Ruminant feeds containing trichloroethyl esters of essential amino acids” (E. R. Squibb & Sons, Inc., priority 1978, dated 1979)

Assays:
[1] = system: volatile fatty acid concentrations in the rumen of fistulated wethers; test: volatile fatty acid concentrations in the rumen of fistulated wethers, 454 g concentrate and 454 g chopped mixed hay (Example 6); type: in vivo, sheep; settings: for Acetic:propionic ratio / Other acids (%) / Propionic acid (%) / Butyric acid (%) / Acetic acid (%) / Total acids: day 7
Description: Mature sheep (wethers) fitted with permanent rumen fistulae were used to determine the effect of L-phenylalanine, 2,2,2-trichloroethyl ester on volatile fatty acid concentrations in vivo (3 wethers per treatment). The animals were individually penned and fed 227 g. of concentrate (described in Example 3) and 680 g. of alfalfa hay once daily. The test compound was admixed with the concentrate. The sheep were medicated for 7 days. Samples for analysis were obtained before (Day 0) and after treatment (Day 7) approximately 6 hours after feeding.
An experiment similar to that described in Example 5 was performed except that the animals (3 per treatment) were fed 454 g. of concentrate (described in Example 3) and 454 g. of chopped mixed (grasses) hay.

[2] = system: volatile fatty acid concentrations in the in vitro rumen fermentation; test: in vitro rumen fermentation, volatile fatty acids, high concentrate substrate, alfalfa hay:concentrate 1:3 (Examples 4 and 7); parameters: species or system sheep; settings: for Acetic acid / Acetic:propionic / Butyric acid / Propionic acid / Total acids: hay:concentrate 1:3
Description: A one gram sample of substrate ground through a 1 mm screen is weighed into 100 ml. lipless beakers equipped with gas-release valves. The substrate consists of alfalfa hay containing approximately 16% protein and a concentrate containing ground corn 60.7%, alfalfa meal 17.5%, molasses 10.0%, soybean meal 5.3%, wheat bran 5.0%, trace mineralized salt 1.0%, limestone 0.5% and Vitamin D 300,000 I.U./ton, mixed in the proportion 3:1. The experimental composition is added to the substrate. 25 ml. of filtered rumen fluid obtained from fasted sheep maintained on feed the same as the above mentioned substrate and 25 ml. of McDougal's buffer solution serve as the inoculum. The buffer solution is as follows:
The fermentation mixture is flushed with carbon dioxide and the vessel is capped with a gas release valve. The fermentation vessel (beaker) is placed in a water bath and incubated at 39° C.±1° for six hours. The sample is mixed every hour by shaking the beaker.
At the end of the 6-hour fermentation period the sample is strained through 4 layers of cheesecloth into a sample bottle containing 1 ml. saturated solution of mercuric chloride. The sample is frozen immediately until analyzed for the volatile fatty acids (VFA) (mg/100 ml.). Prior to analysis, each sample is acidified with 30% phosphoric acid and then analyzed by gas chromatography using a column containing 5% nonylphenoxypolyoxyethylene ethanol plus 0.5% phosphoric acid on 100-120 mesh Gas Chrom S. The acids determined are acetic, propionic, butyric, isobutyric, valeric and isovaleric acids. Total VFA is considered as the addition of these acids. The ratio of acetic: propionic (A:P) is obtained by dividing the concentration of acetic acid by that of propionic acid.
The procedure is described in Example 3. In this example, however, the substrate consisted of alfalfa hay and concentrate in the ratio of 1:3 and inoculum was obtained from sheep fed alfalfa and concentrate in the ratio of 1:3. The concentrate (Fit-N-Fresh) is commercially available from Agway, Inc. and contains grain products, plant protein products, processed grain by-products, cane molasses, minerals, vitamins and a preservative.
The 2,2,2-trichloroethyl ester of glycine was tested in vitro in a manner similar to that described in Example 4.

## Br.N[C@@H](Cc1ccccc1)C(=O)OCC(Cl)(Cl)Cl [L-Phenylalanine 2,2,2-trichloroethyl ester, hydrobromide]
[1]; 200 mg/head/day, pre-treatment 3.38, control day 7 3.54
  Acetic:propionic ratio: 2.65
[1]; 200 mg/head/day, pre-treatment 5.2, control day 7 6.6
  Other acids (%): 8.2%
[1]; 200 mg/head/day, pre-treatment 17.5, control day 7 16.2
  Propionic acid (%): 19.0%
[1]; 200 mg/head/day, pre-treatment 18.4, control day 7 20.0
  Butyric acid (%): 22.5%
[1]; 200 mg/head/day, pre-treatment 58.8, control day 7 57.3
  Acetic acid (%): 50.3%
[1]; 200 mg/head/day, pre-treatment 731, control day 7 687
  Total acids: 663 mg/100 ml
[1]; 500 mg/head/day, pre-treatment 3.43, control day 7 3.54
  Acetic:propionic ratio: 2.18
[1]; 500 mg/head/day, pre-treatment 6.7, control day 7 6.6
  Other acids (%): 9.8%
[1]; 500 mg/head/day, pre-treatment 16.8, control day 7 16.2
  Propionic acid (%): 21.1%
[1]; 500 mg/head/day, pre-treatment 19.0, control day 7 20.0
  Butyric acid (%): 23.5%
[1]; 500 mg/head/day, pre-treatment 57.5, control day 7 57.3
  Acetic acid (%): 45.7%
[1]; 500 mg/head/day, pre-treatment 851, control day 7 687
  Total acids: 734 mg/100 ml
[1]; fistulated wethers, 7 days
  effect on acetic:propionic ratio (in words): decreasing the acetic:propionic ratio
  effect on proportion of propionic acid (in words): effective in increasing the proportion of propionic acid
[2]; 0.02 mg/ml
  Acetic acid: 80 % of control
  Acetic:propionic: 69 % of control
  Butyric acid: 114 % of control
  Propionic acid: 116 % of control
  Total acids: 95 % of control
[2]; 0.1 mg/ml
  Acetic acid: 76 % of control
  Acetic:propionic: 66 % of control
  Butyric acid: 113 % of control
  Propionic acid: 115 % of control
  Total acids: 92 % of control
[2]; 0.2 mg/ml
  Acetic acid: 76 % of control
  Acetic:propionic: 65 % of control
  Butyric acid: 113 % of control
  Propionic acid: 116 % of control
  Total acids: 92 % of control
[2]; 0.4 mg/ml
  Acetic acid: 79 % of control
  Acetic:propionic: 65 % of control
  Butyric acid: 116 % of control
  Propionic acid: 120 % of control
  Total acids: 96 % of control
[2]; 1.0 mg/ml
  Acetic acid: 76 % of control
  Acetic:propionic: 64 % of control
  Butyric acid: 112 % of control
  Propionic acid: 119 % of control
  Total acids: 92 % of control
[2]; high concentrate substrate
  effect on acetic:propionic ratio (in words): decreasing the acetic:propionic ratio
  effect on propionic acid concentration (in words): effective in increasing the propionic acid concentration
